In patent US20220298115A1, “SMALL MOLECULE INHIBITORS OF ACETYL COENZYME A SYNTHETASE SHORT CHAIN 2 (ACSS2)” (Curadev Pharma Pvt. Ltd., priority 2019, published 2022) one finds IC50 data, which are given here for 29 molecules.

In one experiment the target is T1, human ACSS2 (Homo sapiens, UniProt Q9NR19).
T1 construct: The cytosolic fraction of BT474 cells was used as a source of the ACSS2 enzyme; endogenous in cells; host or cells: BT474 cells (cytosolic fraction)
The experiment is described as follows: ACSS2 enzyme assay (acetyl-CoA formation, LC-MS/MS). The conditions noted are these: cytosolic fraction of BT474 cells as ACSS2 source; 100 μM acetate, CoA and ATP; 2 h at 25° C.; read-out: Enzyme Activity (IC50 range). The experiment is classed as biochemical. As to the method: Novel compounds were screened in a human ACSS2 enzyme assay. Briefly, the ACSS2 enzyme reaction was monitored by directly measuring acetyl-CoA formation. The cytosolic fraction of BT474 cells was used as a source of the ACSS2 enzyme. A short protocol for this assay is provided below.
Preparation of Cytosolic Fraction from BT474 Cells
9×10^6 cells were harvested by trypsinization followed by centrifugation. The cell pellet was washed with PBS and dissolved in 500 μl STM buffer (50 mM Tris-HCl pH7.4, 250 mM sucrose, 5 mM MgCl2 & protease-phosphatase inhibitor cocktail) and homogenized at 600-1000 rpm for 1 min. on ice followed by incubation for 30 min. with intermittent vortexing. Supernatant was collected by centrifugation at 800 g for 15 min. at 4° C. Cytosolic fraction was prepared by further centrifugation of the supernatant at 12000 g for 15 min. at 4° C. Total protein content of the cytosolic fraction was estimated & diluted to 1 mg/ml concentration in storage buffer (25 mM Tris-HCl pH7.4, 1 mM MgCl2, 1 mM DTT & 10% glycerol) and stored at −80° C. for further use.
100 ng of cytosolic fraction in buffer composed of 25 mM Tris-HCl pH7.4 1 mM MgCl2, 1 mM DTT & 0.05% Tween20 was preincubated with desired concentrations of novel compounds for 5 min. maintaining 1% DMSO. Reaction was started with addition of substrate mix (100 μM of acetate, CoA and ATP) and incubated for 2 h at 25° C. with constant shaking at 500 rpm. Post incubation the reaction was terminated by addition of 10% TCA followed by 5 fold dilution in water. The reaction mixture was centrifuged at 800 g for 10 min. at RT and acetyl-CoA detected in supernatant by LC-MS/MS (QTrap5500 ABSCIEX).

For experiment [1], the system named is [14C] acetate incorporation in macromolecules, BT474 cells. The experiment is described as follows: Cell based [14C] acetate incorporation assay. The following applies: Homo sapiens, BT-474, 3 h at 37° C., read-out: Cellular Activity (IC50 range). As to the method: Cell Based [^14C] Acetate Incorporation Assay
In the cellular assay, ACSS2 inhibitors were screened against [^14C] acetate incorporation in macromolecules. 4×10^4 BT474 cells were plated in 96 well plates in growth media composed of DMEM & 10% FBS and incubated overnight in a 37° C., 5% CO2 incubator. The following day the cells were washed in HBSS and the assay was performed in 100 μl of HBSS. 50 μl of 4× compound in 4% DMSO was added to the cells and preincubated for 10 min. at 37° C. 50 μl of acetate solution (0.1 μCi ^14C acetate+10 μM ^12C acetate) was added to each well of the plate and incubated for 3 h in a 37° C., 5% CO2 incubator. Following incubation, cells were harvested with water on polyethylene imine (PEI) presoaked GF/C filtermat, air dried and radioactive count were recorded in Trilux micro beta Liquid Scintillation Counter (PerkinElmer).

Bounds are passed on as bounds.

T1 sequence (Q9NR19 whole entry): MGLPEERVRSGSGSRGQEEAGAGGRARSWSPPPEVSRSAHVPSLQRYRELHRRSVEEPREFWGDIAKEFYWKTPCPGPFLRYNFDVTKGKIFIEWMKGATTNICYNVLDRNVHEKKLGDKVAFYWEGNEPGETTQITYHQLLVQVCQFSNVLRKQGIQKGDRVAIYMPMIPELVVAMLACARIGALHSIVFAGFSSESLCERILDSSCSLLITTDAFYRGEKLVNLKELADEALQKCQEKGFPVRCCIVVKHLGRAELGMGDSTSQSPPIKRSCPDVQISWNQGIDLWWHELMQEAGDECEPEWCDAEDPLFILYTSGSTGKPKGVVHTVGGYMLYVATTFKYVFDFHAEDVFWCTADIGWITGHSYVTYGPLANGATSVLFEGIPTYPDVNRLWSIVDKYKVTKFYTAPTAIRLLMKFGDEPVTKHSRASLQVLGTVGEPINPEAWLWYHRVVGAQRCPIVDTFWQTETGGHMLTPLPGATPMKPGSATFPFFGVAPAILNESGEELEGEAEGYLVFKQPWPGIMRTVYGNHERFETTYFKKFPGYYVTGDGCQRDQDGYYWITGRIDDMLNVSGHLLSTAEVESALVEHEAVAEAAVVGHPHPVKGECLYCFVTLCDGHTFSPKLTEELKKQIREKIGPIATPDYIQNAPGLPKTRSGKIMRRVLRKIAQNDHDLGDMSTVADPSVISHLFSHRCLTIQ

As a reminder, the IC50 is the concentration that inhibits the measured activity by half. Turning to `CC[C@@H](O)CNC(=O)Nc1ccc2nc(-c3ccccc3)c(-c3ccccc3)c(C(N)=O)c2c1` [Example 57, (R)-6-(3-(2-hydroxybutyl)ureido)-2,3-diphenylquino-line-4-carboxamide], the concentration for half-maximal inhibition (IC50) (at human ACSS2; in experiment [1]) was < 100 nM each time.

As for `CCOc1ccccc1-c1nc2ccc(NC(=O)NCC(O)CC)cc2cc1-c1ccccc1` (stereo not shown) [Example 58, 1-(2-(2-ethoxyphenyl)-3-phenylquinolin-6-yl)-3-(2-hydroxybutyl) urea], the IC50 (at human ACSS2; in experiment [1]) was < 100 nM each time.

Take `CCC(O)CNC(=O)Nc1ccc2nc(-c3ccccc3OCC(C)C)c(-c3ccccc3)cc2c1` (stereo not shown) [Example 59, 1-(2-hydroxybutyl)-3-(2-(2-isobutoxyphe-nyl)-3-phenylquinolin-6-yl)urea]: the concentration for half-maximal inhibition (IC50) (at human ACSS2; in experiment [1]) was < 100 nM each time.

With `C#Cc1nc2ccc(NC(=O)NCC(O)CC)cc2cc1-c1ccccc1` (stereo not shown) [Example 60, 1-(2-ethynyl-3-phenylquinolin-6-yl)-3-(2-hydroxybutyl) urea], the IC50 (on human ACSS2; in experiment [1]) was < 100 nM in each case.

Consider `CCc1nc2ccc(NC(=O)NCC(O)CC)cc2cc1-c1ccccc1` (stereo not shown) [Example 61, 1-(2-ethyl-3-phenylquinolin-6-yl)-3-(2-hydroxybutyl) urea], for which the half-maximal inhibitory concentration (IC50) (on human ACSS2; in experiment [1]) was < 100 nM throughout.

For `CCC(O)CNC(=O)Nc1ccc2nc(-c3ccccc3)c(-c3ccccc3)c(C(=O)NC)c2c1` (stereo not shown) [Example 62, 6-(3-(2-hydroxybutyl)ureido)-N-methyl-2,3-diphenylquino-line-4-carboxamide], the IC50 (on human ACSS2; in experiment [1]) was < 100 nM throughout.

Take `CCC(O)CNC(=O)Nc1ccc2nc(-c3ccccc3)c(-c3ccccc3)c(C(=O)N(C)C)c2c1` (stereo not shown) [Example 63, 6-(3-(2-hydroxybutyl)ureido)-N,N-dimethyl-2,3-diphenylquino-line-4-carboxamide]: the concentration for half-maximal inhibition (IC50) (on human ACSS2; in experiment [1]) was < 100 nM each time.

In the case of `CCC(O)CNC(=O)Nc1ccc2nc(-c3ccccc3)c(-c3ccccc3)c(C(=O)NC3CC3)c2c1` (stereo not shown) [Example 64, N-cyclopropyl-6-(3-(2-hydroxybutyl)ureido)-2,3-diphenylquino-line-4-carboxamide], the IC50 (at human ACSS2; in experiment [1]) was < 100 nM throughout.

`CCC(O)CNC(=O)Nc1ccc2nc(-c3ccccc3)c(-c3ccccc3)c(C(=O)O)c2c1` (stereo not shown) [Example 65, 6-(3-(2-hydroxybutyl)ureido)-2,3-diphenylquino-line-4-carboxylic acid]: the half-maximal inhibitory concentration (IC50) at human ACSS2 was < 100 nM; in experiment [1], ≤ 10000 nM.

Consider `CCC(O)CNC(=O)Nc1ccc2nc(C)c(-c3ccccc3)c(C(N)=O)c2c1` (stereo not shown) [Example 66, 6-(3-(2-hydroxybutyl)ureido)-2-methyl-3-phenylquinoline-4-carboxamide], for which the values for the 50% inhibitory concentration (IC50) (on human ACSS2; in experiment [1]) were < 100 nM and ≤ 1000 nM, respectively.

On to `CC[C@H](O)CNC(=O)Nc1ccc2nc(-c3ccccc3)c(-c3ccccc3F)cc2c1` [Example 67, (S)-1-(3-(2-fluorophenyl)-2-phenylquinolin-6-yl)-3-(2-hydroxybutyl) urea], for which the half-inhibitory concentration (IC50) (at human ACSS2; in experiment [1]) was < 100 nM in each case.

Take `CCC(O)CNC(=O)Nc1ccc2nc(C)c(C)c(C(N)=O)c2c1` (stereo not shown) [Example 69, 6-(3-(2-hydroxybutyl)ureido)-2,3-dimethylquino-line-4-carboxamide]: the results for the IC50 (at human ACSS2; in experiment [1]) were ≤ 10000 nM and > 10000 nM, respectively.

With `CCC(O)CNC(=O)Nc1ccc2nc(-c3ccccc3)c(-c3ccccc3)c(C#N)c2c1` (stereo not shown) [Example 70, 1-(4-cyano-2,3-diphenylquino-lin-6-yl)-3-(2-hydroxybutyl) urea], the 50% inhibitory concentration (IC50) (on human ACSS2; in experiment [1]) was < 100 nM in each case.

For the molecule `CCC(O)CNC(=O)Nc1ccc2ncc(-c3ccccc3)c(C(N)=O)c2c1` (stereo not shown) [Example 71, 6-(3-(2-hydroxybutyl)ureido)-3-phenylquinoline-4-carboxamide], the IC50 at human ACSS2 was ≤ 1000 nM; in experiment [1], > 10000 nM.

In the case of `CC[C@@H](O)CNC(=O)Nc1ccc2nc(C)c(-c3ccccc3)cc2c1` [Example 72, (R)-1-(2-Hydroxybutyl)-3-(2-methyl-3-phenylquinolin-6-yl)urea], the concentration for half-maximal inhibition (IC50) (at human ACSS2; in experiment [1]) was < 100 nM each time.

In the case of `CCC(O)CNC(=O)Nc1ccc2nc(C)c(-c3ccccc3F)c(C(N)=O)c2c1` (stereo not shown) [Example 73, 3-(2-fluorophenyl)-6-(3-(2-hydroxybutyl)ureido)-2-methylquinoline-4-carboxamide], the IC50 was < 100 nM at human ACSS2 and ≤ 1000 nM in experiment [1].

For the molecule `CCC(O)CNC(=O)Nc1ccc2nc(C)cc(C(N)=O)c2c1` (stereo not shown) [Example 74, 6-(3-(2-hydroxybutyl)ureido)-2-methylquinoline-4-carboxamide], the IC50 is ≤ 10000 nM at human ACSS2 and > 10000 nM in experiment [1].

Turning to `CCC(O)CNC(=O)Nc1ccc2nc(C)c(-c3ccccc3F)cc2c1` (stereo not shown) [Example 75, 1-(3-(2-fluorophenyl)-2-methylquinolin-6-yl)-3-(2-hydroxybutyl) urea], the IC50 (at human ACSS2; in experiment [1]) was < 100 nM in each case.

For `CCCCNC(=O)Nc1ccc2nc(C)c(-c3ccccc3)cc2c1` [Example 76, 1-butyl-3-(2-methyl-3-phenylquinolin-6-yl)urea], the IC50 is ≤ 1000 nM at human ACSS2 and < 100 nM in experiment [1].

For `CCC(CNC(=O)Nc1ccc2nc(C)c(-c3ccccc3)cc2c1)OC` (stereo not shown) [Example 77, 1-(2-methoxybutyl)-3-(2-methyl-3-phenylquinolin-6-yl)urea], the IC50 on human ACSS2 is < 100 nM; in experiment [1], ≤ 1000 nM.

On to `COCCNC(=O)Nc1ccc2nc(C)c(-c3ccccc3)cc2c1` [Example 78, 1-(2-methoxyethyl)-3-(2-methyl-3-phenylquinolin-6-yl)urea], for which the IC50 (on human ACSS2; in experiment [1]) was ≤ 1000 nM in each case.

Take `CCC(O)CNC(=O)Nc1ccc2nc(C)c(-c3cccnc3)cc2c1` (stereo not shown) [Example 79, 1-(2-hydroxybutyl)-3-(2-methyl-3-(pyridin-3-yl)quinolin-6-yl)urea]: the half-maximal inhibitory concentration (IC50) was < 100 nM on human ACSS2 and ≤ 1000 nM in experiment [1].

For `CCC(O)CNC(=O)Nc1ccc2nc(C)c(-c3ccccc3C)cc2c1` (stereo not shown) [Example 80, 1-(2-hydroxybutyl)-3-(2-methyl-3-(o-tolyl)quinolin-6-yl)urea], the IC50 (on human ACSS2; in experiment [1]) was < 100 nM each time.

Turning to `CCC(O)CNC(=O)Nc1ccc2nc(C)c(-c3ccccc3Cl)cc2c1` (stereo not shown) [Example 81, 1-(3-(2-chlorophenyl)-2-methylquinolin-6-yl)-3-(2-hydroxybutyl) urea], the concentration for half-maximal inhibition (IC50) (at human ACSS2; in experiment [1]) was < 100 nM in each case.

With `CCC(O)CNC(=O)Nc1ccc2nc(C)c(-c3cnn(C)c3)cc2c1` (stereo not shown) [Example 82, 1-(2-hydroxybutyl)-3-(2-methyl-3-(1-methyl-1H-pyrazol-4-yl)quinolin-6-yl)urea], the half-maximal inhibitory concentration (IC50) on human ACSS2 was ≤ 1000 nM; in experiment [1], > 10000 nM.

As for `CC[C@@H](O)CNC(=O)Nc1ccc2nc(C)c(-c3ccccc3C)cc2c1` [Example 83, (R)-1-(2-hydroxybutyl)-3-(2-methyl-3-(o-tolyl)quinolin-6-yl)urea], the IC50 (at human ACSS2; in experiment [1]) was < 100 nM each time.

For the molecule `CCC(O)CNC(=O)Nc1ccc2nc(-c3ccccc3)c(-c3ccccc3)c(NC(C)=O)c2c1` (stereo not shown) [Example 84, N-(6-(3-(2-hydroxybutyl)ureido)-2,3-diphenylquinolin-4-yl)acetamide], the IC50 (at human ACSS2; in experiment [1]) was < 100 nM throughout.

`CCC(O)CNC(=O)Nc1ccc2nc(C)c(-c3ccccc3)cc2c1C` (stereo not shown) [Example 85, 1-(2,5-dimethyl-3-phenylquinolin-6-yl)-3-(2-hydroxybutyl) urea]: the IC50 (at human ACSS2; in experiment [1]) was < 100 nM in each case.

Regarding `CCC(O)CNC(=O)Nc1ccc2nc(C)c(-c3ccccc3)cc2c1C1CC1` (stereo not shown) [Example 86, 1-(5-cyclopropyl-2-methyl-3-phenylquinolin-6-yl)-3-(2-hydroxybutyl) urea], the half-maximal inhibitory concentration (IC50) (on human ACSS2; in experiment [1]) was < 100 nM in each case.
